Results published in ChEMBL document CHEMBL1681705, “Optimisation of ITK inhibitors through successive iterative design cycles” (Bioorg Med Chem Lett, 2011).

Tests used:
[1] = biological target: Ribosomal protein S6 kinase alpha-1 (Homo sapiens) (UniProt Q15418); assay: Inhibition of Rsk1 at 0.1 uM; values are per cent of control
[2] = biological target: T1, Activin receptor type-1B (Homo sapiens) (UniProt P36896); assay: Inhibition of ALK4 at 0.1 uM; values are per cent of control
T1 sequence (whole entry): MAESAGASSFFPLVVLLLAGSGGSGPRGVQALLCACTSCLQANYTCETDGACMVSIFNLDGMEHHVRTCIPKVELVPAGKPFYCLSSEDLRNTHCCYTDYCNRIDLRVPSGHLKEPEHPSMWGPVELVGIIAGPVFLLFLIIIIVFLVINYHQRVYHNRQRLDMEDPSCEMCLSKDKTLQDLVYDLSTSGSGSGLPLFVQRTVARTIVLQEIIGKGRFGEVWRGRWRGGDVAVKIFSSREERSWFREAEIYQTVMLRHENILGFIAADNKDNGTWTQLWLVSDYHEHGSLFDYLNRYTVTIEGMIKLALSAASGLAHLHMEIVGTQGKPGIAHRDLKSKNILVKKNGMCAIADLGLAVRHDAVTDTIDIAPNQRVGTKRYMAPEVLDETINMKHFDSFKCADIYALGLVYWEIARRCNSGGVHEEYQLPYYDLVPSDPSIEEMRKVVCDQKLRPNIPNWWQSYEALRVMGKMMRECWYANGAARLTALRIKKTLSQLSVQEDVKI

[3] = biological target: T2, Protein kinase C iota type (Homo sapiens) (UniProt P41743); assay: Inhibition of PKCiota at 0.1 uM; values are per cent of control
T2 sequence (whole entry): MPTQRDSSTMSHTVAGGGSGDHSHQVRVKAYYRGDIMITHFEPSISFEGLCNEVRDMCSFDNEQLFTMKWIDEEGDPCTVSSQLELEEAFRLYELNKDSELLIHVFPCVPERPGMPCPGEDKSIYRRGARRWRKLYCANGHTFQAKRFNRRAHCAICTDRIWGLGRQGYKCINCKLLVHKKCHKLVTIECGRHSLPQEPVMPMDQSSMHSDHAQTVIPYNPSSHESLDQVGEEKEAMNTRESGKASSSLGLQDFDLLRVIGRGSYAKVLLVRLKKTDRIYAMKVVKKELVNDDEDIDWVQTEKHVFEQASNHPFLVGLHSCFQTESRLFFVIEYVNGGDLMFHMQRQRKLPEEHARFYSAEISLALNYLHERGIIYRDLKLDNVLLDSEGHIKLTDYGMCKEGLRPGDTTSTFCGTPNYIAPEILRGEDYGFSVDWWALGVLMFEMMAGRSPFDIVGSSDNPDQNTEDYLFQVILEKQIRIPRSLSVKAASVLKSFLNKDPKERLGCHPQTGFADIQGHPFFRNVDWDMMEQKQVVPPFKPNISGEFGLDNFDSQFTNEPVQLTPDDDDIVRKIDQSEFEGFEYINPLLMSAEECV

[4] = biological target: T3, Dual specificity mitogen-activated protein kinase kinase 6 (Homo sapiens) (UniProt P52564); assay: Inhibition of MKK6 at 1 uM; values are per cent of control
T3 sequence (whole entry): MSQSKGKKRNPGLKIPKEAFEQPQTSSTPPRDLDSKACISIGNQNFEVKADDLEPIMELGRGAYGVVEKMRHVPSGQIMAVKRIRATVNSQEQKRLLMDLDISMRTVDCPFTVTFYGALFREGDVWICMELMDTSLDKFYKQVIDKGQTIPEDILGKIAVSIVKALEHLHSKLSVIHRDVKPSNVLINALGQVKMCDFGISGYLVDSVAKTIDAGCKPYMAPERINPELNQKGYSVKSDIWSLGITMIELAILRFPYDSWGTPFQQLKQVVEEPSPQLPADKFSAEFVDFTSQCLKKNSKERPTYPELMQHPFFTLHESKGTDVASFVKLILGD

[5] = biological target: T3, Dual specificity mitogen-activated protein kinase kinase 6 (Homo sapiens); assay: Inhibition of MKK6 at 0.1 uM; values are per cent of control
[6] = biological target: Tyrosine-protein kinase BTK (Homo sapiens) (UniProt Q06187); assay: Inhibition of BTK at 0.1 uM; values are per cent of control
[7] = biological target: BDNF/NT-3 growth factors receptor (Homo sapiens) (UniProt Q16620); assay: Inhibition of TrkB at 1 uM; values are per cent of control
[8] = biological target: Insulin-like growth factor 1 receptor (Homo sapiens) (UniProt P08069); assay: Inhibition of IGF1R at 0.1 uM; values are per cent of control
[9] = biological target: T4, Calcium/calmodulin-dependent protein kinase type IV (Homo sapiens) (UniProt Q16566); assay: Inhibition of CaMK4 at 1 uM; values are per cent of control
T4 sequence (whole entry): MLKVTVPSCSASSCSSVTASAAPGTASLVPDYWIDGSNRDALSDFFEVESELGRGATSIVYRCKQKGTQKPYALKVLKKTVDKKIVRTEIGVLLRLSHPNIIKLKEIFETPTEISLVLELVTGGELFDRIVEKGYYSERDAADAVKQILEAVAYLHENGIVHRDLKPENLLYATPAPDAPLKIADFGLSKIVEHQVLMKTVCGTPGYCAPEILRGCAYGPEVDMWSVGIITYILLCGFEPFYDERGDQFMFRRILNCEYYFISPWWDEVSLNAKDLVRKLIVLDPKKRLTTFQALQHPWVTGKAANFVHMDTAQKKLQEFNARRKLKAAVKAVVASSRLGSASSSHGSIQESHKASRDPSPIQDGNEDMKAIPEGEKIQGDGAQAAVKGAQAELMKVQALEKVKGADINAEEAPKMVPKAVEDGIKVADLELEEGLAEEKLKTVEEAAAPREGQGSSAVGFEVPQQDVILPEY

[10] = biological target: Hepatocyte growth factor receptor (Homo sapiens) (UniProt P08581); assay: Inhibition of Met at 0.1 uM; values are per cent of control
[11] = biological target: Mitogen-activated protein kinase 14 (Homo sapiens) (UniProt Q16539); assay: Inhibition of SAPK2a at 0.1 uM; values are per cent of control
[12] = biological target: MAP kinase-interacting serine/threonine-protein kinase 2 (Homo sapiens) (UniProt Q9HBH9); assay: Inhibition of Mnk2 at 1 uM; values are per cent of control
[13] = biological target: Receptor-type tyrosine-protein kinase FLT3 (Homo sapiens) (UniProt P36888); assay: Inhibition of Flt3 at 0.1 uM; values are per cent of control
[14] = biological target: Protein kinase C alpha type (Homo sapiens) (UniProt P17252); assay: Inhibition of PKCalpha at 1 uM; values are per cent of control

Chain of Ribosomal protein S6 kinase alpha-1 (Homo sapiens) (Q15418 whole entry): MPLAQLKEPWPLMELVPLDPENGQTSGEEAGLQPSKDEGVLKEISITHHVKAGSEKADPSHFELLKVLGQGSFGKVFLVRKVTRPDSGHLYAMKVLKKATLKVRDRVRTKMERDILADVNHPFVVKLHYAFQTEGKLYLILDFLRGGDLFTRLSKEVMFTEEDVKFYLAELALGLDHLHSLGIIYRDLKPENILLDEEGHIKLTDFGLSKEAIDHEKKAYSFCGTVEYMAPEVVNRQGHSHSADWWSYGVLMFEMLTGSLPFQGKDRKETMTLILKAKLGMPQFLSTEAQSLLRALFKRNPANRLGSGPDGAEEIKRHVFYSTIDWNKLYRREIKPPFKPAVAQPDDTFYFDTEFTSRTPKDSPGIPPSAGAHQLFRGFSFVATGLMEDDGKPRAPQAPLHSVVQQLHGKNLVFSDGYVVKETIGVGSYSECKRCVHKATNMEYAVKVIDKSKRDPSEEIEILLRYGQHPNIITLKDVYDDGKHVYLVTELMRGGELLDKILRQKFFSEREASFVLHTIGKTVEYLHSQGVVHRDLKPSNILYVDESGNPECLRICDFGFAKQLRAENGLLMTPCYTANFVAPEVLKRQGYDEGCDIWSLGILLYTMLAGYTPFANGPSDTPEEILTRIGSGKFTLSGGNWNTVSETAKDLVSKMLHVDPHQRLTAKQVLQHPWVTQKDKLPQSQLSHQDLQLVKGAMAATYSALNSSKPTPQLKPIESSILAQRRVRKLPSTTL
Chain of Mitogen-activated protein kinase 14 (Homo sapiens) (Q16539 whole entry): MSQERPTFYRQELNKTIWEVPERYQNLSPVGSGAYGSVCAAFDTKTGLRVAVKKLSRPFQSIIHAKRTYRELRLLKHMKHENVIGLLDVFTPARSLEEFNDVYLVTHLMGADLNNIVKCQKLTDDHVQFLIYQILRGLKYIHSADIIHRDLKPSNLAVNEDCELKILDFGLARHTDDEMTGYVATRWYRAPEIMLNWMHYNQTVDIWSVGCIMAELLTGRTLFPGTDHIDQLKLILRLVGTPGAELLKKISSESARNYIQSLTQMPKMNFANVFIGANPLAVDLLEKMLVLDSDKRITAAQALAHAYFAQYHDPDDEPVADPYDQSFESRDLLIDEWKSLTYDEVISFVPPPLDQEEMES
Chain of Tyrosine-protein kinase BTK (Homo sapiens) (Q06187 whole entry): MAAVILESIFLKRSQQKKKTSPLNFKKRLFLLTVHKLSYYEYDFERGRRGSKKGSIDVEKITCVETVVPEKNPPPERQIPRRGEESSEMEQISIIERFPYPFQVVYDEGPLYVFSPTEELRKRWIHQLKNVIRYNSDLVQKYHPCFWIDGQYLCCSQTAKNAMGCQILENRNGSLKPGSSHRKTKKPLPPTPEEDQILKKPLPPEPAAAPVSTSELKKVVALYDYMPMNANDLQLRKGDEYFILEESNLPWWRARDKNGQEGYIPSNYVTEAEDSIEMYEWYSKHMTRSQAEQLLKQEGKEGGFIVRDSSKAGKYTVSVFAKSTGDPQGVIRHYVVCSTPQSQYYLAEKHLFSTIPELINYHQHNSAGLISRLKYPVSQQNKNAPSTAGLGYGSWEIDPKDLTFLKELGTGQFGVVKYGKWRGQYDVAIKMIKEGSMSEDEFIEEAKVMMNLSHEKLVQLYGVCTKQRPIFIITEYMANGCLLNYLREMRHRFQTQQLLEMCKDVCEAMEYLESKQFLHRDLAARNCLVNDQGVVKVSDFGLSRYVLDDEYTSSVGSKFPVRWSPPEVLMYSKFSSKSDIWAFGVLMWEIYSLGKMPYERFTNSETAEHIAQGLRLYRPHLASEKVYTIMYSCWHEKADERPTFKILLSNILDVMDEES
Chain of BDNF/NT-3 growth factors receptor (Homo sapiens) (Q16620 32-822 limits assumed): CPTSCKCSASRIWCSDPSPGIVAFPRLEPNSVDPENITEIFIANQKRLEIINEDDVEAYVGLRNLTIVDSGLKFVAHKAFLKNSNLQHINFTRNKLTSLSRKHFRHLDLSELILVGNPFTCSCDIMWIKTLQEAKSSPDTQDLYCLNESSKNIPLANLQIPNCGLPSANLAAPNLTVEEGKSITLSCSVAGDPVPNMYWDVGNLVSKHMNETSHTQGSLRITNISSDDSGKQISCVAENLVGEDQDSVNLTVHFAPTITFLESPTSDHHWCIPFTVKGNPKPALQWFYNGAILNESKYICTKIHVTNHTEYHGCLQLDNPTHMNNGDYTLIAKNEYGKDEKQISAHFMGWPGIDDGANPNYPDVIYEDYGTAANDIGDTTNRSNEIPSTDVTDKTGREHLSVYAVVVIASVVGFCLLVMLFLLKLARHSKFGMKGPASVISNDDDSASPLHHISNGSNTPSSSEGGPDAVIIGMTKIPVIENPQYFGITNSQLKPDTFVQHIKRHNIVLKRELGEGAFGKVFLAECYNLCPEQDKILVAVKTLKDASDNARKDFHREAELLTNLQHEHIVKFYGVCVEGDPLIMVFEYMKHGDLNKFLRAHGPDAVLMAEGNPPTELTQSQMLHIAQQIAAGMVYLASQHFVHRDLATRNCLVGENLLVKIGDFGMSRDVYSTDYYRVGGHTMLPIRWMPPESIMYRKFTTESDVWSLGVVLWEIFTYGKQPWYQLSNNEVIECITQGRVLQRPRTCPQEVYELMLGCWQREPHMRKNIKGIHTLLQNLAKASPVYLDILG
Chain of Hepatocyte growth factor receptor (Homo sapiens) (P08581 whole entry): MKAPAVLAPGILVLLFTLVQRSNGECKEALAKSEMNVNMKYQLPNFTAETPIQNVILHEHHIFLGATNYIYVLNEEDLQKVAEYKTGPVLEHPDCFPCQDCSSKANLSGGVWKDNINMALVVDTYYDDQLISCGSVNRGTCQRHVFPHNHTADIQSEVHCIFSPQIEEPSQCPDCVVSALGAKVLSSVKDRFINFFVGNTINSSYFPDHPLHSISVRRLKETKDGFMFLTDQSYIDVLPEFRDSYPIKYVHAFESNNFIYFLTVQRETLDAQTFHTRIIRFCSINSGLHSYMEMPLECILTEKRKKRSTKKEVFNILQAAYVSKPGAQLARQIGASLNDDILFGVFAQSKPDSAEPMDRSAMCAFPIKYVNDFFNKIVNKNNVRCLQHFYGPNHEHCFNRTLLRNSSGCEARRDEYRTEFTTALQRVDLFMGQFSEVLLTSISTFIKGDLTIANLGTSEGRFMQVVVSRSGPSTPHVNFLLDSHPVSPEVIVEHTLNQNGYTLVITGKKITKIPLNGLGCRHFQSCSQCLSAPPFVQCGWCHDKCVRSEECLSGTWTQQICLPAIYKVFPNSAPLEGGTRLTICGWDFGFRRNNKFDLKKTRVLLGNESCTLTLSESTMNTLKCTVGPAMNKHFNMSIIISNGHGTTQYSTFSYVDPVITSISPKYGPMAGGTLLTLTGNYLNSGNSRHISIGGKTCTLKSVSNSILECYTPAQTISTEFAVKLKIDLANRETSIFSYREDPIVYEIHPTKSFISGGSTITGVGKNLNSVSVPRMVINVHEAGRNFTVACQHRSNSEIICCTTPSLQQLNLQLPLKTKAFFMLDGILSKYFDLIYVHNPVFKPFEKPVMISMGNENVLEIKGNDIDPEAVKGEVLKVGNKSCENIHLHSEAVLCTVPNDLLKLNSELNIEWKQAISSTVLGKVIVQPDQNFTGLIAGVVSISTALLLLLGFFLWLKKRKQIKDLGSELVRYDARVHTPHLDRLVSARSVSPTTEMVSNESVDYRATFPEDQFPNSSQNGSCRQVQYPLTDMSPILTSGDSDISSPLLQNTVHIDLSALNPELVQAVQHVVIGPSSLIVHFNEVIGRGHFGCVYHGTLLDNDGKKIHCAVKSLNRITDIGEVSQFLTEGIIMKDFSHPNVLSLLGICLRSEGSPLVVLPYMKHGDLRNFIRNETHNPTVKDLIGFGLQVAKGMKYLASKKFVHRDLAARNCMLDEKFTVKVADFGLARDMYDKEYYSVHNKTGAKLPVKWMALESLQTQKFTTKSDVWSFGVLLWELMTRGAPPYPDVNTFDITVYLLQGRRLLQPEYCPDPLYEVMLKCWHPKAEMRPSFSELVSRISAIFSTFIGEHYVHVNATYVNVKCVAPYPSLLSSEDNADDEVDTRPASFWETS
Chain of MAP kinase-interacting serine/threonine-protein kinase 2 (Homo sapiens) (Q9HBH9 whole entry, looked up): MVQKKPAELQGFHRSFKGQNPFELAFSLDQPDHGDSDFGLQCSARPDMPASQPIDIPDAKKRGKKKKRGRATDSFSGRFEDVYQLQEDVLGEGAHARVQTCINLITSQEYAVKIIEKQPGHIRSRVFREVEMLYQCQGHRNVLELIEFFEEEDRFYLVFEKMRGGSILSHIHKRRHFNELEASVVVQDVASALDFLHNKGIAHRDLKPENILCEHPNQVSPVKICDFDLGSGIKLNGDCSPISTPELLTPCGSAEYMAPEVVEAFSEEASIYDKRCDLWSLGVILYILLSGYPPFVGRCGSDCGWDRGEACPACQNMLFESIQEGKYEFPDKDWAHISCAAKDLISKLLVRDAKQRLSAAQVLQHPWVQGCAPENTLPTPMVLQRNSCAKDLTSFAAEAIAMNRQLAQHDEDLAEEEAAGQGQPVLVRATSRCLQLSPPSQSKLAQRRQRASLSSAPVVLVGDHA

residual activity [1]	residual activity [2]	residual activity [3]	residual activity [4]	residual activity [5]	residual activity [6]	residual activity [7]	residual activity [8]	residual activity [9]	residual activity [10]	residual activity [11]	residual activity [12]	residual activity [13]	residual activity [14]	Structure (SMILES)
6%	124%	89%	15%	57%	69%	1%	98%	28%	44%	105%	14%	24%	27%	Cc1ccc2cc(-c3n[nH]c4ccc(NC5CCNC5)cc34)[nH]c2c1 (stereo not drawn)
97%	87%	109%	85%	90%	38%	0%	52%	115%	78%	89%	44%	5%	36%	Cc1ccc2cc(-c3n[nH]c4ccc(NC5CCN(Cc6ccccc6)CC5)cc34)[nH]c2c1
